# Measurements as given in US20260374756A1, “HETEROCYCLIC COMPOUNDS AS INHIBITORS OF MONOACYLGLYCEROL LIPASE (MAGL)” (Hoffmann-La Roche Inc., priority 2022, published 2026).
# Target: T1, hMAGL (Homo sapiens, UniProt Q99685)
# T1 sequence (Q99685 1-303): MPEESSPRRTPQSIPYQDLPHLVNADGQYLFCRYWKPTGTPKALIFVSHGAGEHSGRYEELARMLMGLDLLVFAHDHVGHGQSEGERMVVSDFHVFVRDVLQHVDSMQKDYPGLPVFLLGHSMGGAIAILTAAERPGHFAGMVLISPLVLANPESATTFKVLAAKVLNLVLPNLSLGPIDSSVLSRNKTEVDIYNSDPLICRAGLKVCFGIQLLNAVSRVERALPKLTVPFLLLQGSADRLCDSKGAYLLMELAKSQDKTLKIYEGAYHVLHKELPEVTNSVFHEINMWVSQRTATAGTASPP
# Experiment: 2-AG assay: MAGL inhibition, hydrolysis of 2-arachidonoylglycerol to arachidonic acid followed by mass spectrometry
# Assay type: biochemical
# Protocol: Compounds of formula (I) were profiled for MAGL inhibitory activity by determining the enzymatic activity by following the hydrolysis of the natural substrate 2-arachidonoylglycerol (2-AG) resulting in arachidonic acid, which can be followed by mass spectrometry. This assay is hereinafter abbreviated “2-AG assay”. The 2-AG assay was carried out in 384 well polypropylene assay plates. […] Compound dilutions were added to MAGL protein in assay buffer (50 mM TRIS, 1 mM EDTA, 0.01% (v/v) Tween-20, 2.5% (v/v) DMSO). After shaking, the plate was incubated for 15 min at RT. To start the reaction, 2-arachidonoylglycerol in assay buffer was added. The final concentrations in the assay was […] for MAGL protein and 8 μM 2-arachidonoylglyerol. After shaking and 30 min incubation at RT, the reaction was quenched by the addition of two assay volumes of acetonitrile containing 4 μM of d8-arachidonic acid. The amount of arachidonic acid formed was traced by an online SPE system (Agilent Rapidfire) coupled to a triple quadrupole mass spectrometer. A C18 SPE cartridge (Agilent G9205A) was used in an acetonitrile/water liquid setup. […] The activity of the compounds was calculated based on the ratio of intensities [arachidonic acid/d8-arachidonic acid].
row,IC50,SMILES
1,9.98 nM,"O=C(N1CC2(CC(Cn3cnc(C(F)(F)F)n3)C2)C1)N1CC2(CC(n3cnc(C4(O)CC4)n3)C2)C1 [Example 128, [6-[3-(1-hydroxycyclopropyl)-1,2,4-triazol-1-yl]-2-azaspiro[3.3]heptan-2-yl]-[6-[[3-(trifluoromethyl)-1,2,4-triazol-1-yl]methyl]-2-azaspiro[3.3]heptan-2-yl]methanone]"
2,2.12 nM,"O=C(N1CC2(CC(c3cc(C4CC4)n[nH]3)C2)C1)N1CC2(CN(Cc3cc(C(F)(F)F)ns3)C2)C1 [Example 151, [6-(3-cyclopropyl-1H-pyrazol-5-yl)-2-azaspiro[3.3]heptan-2-yl]-[6-[[3-(trifluoromethyl)isothiazol-5-yl]methyl]-2,6-diazaspiro[3.3]heptan-2-yl]methanone]"
3,19 nM,"O=C(N1CC2(CC(Oc3cnn(CC(F)(F)F)c3)C2)C1)N1CC2(CC(c3cc(C4CC4)n[nH]3)C2)C1 [Example 248, [6-(3-cyclopropyl-1H-pyrazol-5-yl)-2-azaspiro[3.3]heptan-2-yl]-[6-[1-(2,2,2-trifluoroethyl)pyrazol-4-yl]oxy-2-azaspiro[3.3]heptan-2-yl]methanone]"
4,5.42 nM,"O=C(N1CC2(CC(n3cnc(C4CC4)n3)C2)C1)N1CC2(CN(Cc3nc(C4CC4)ns3)C2)C1 [Example 44, [6-[(3-cyclopropyl-1,2,4-thiadiazol-5-yl)methyl]-2,6-diazaspiro[3.3]heptan-2-yl]-[6-(3-cyclopropyl-1,2,4-triazol-1-yl)-2-azaspiro[3.3]heptan-2-yl]methanone]"
5,0.47 nM,"O=C(N1CC2(CC(Cc3cc(C(F)(F)F)nn3CC(F)(F)F)C2)C1)N1CC2(CC(n3cnc(C(F)(F)F)n3)C2)C1 [Example 140, [6-[[2-(2,2,2-trifluoroethyl)-5-(trifluoromethyl)pyrazol-3-yl]methyl]-2-azaspiro[3.3]heptan-2-yl]-[6-[3-(trifluoromethyl)-1,2,4-triazol-1-yl]-2-azaspiro[3.3]heptan-2-yl]methanone]"
6,58.3 nM,"CC(C)(C)n1ccnc1CN1CC2(C1)CN(C(=O)N1CC3(CC(n4cnc(C(F)(F)F)n4)C3)C1)C2 [Example 319, [6-[(1-tert-butylimidazol-2-yl)methyl]-2,6-diazaspiro[3.3]heptan-2-yl]-[6-[3-(trifluoromethyl)-1,2,4-triazol-1-yl]-2-azaspiro[3.3]heptan-2-yl]methanone]"
7,3.7 nM,"O=C(N1CC2(CC(Cc3ncn(CC(F)(F)F)n3)C2)C1)N1CC2(CC(n3cnc(C4CC4)n3)C2)C1 [Example 339, [6-(3-cyclopropyl-1,2,4-triazol-1-yl)-2-azaspiro[3.3]heptan-2-yl]-[6-[[1-(2,2,2-trifluoroethyl)-1,2,4-triazol-3-yl]methyl]-2-azaspiro[3.3]heptan-2-yl]methanone]"
8,68.1 nM,"O=C(N1CC2(CCN(Cc3cc(C(F)(F)F)no3)CC2)C1)N1CC2(CC(n3cnc(C(F)(F)F)n3)C2)C1 [Example 317, [7-[[3-(trifluoromethyl)isoxazol-5-yl]methyl]-2,7-diazaspiro[3.5]nonan-2-yl]-[6-[3-(trifluoromethyl)-1,2,4-triazol-1-yl]-2-azaspiro[3.3]heptan-2-yl]methanone]"
9,22.9 nM,"O=C(N1CC2(CC(n3cnc(C4(O)CC4)n3)C2)C1)N1CC2(CN(Cc3snnc3C3CCC3)C2)C1 [Example 78, [6-[(4-cyclobutylthiadiazol-5-yl)methyl]-2,6-diazaspiro[3.3]heptan-2-yl]-[6-[3-(1-hydroxycyclopropyl)-1,2,4-triazol-1-yl]-2-azaspiro[3.3]heptan-2-yl]methanone]"
10,5.27 nM,"Cn1nc(CN2CC3(C2)CN(C(=O)N2CC4(CC(n5cnc(C6CC6)n5)C4)C2)C3)cc1C(F)(F)F [Example 162, [6-(3-cyclopropyl-1,2,4-triazol-1-yl)-2-azaspiro[3.3]heptan-2-yl]-[6-[[1-methyl-5-(trifluoromethyl)pyrazol-3-yl]methyl]-2,6-diazaspiro[3.3]heptan-2-yl]methanone]"
11,251 nM,"O=C(N1CC2(CCN(Cc3cc(C(F)(F)F)on3)CC2)C1)N1CC2(CC(n3cnc(C4(O)CC4)n3)C2)C1 [Example 81, [6-[3-(1-hydroxycyclopropyl)-1,2,4-triazol-1-yl]-2-azaspiro[3.3]heptan-2-yl]-[7-[[5-(trifluoromethyl)isoxazol-3-yl]methyl]-2,7-diazaspiro[3.5]nonan-2-yl]methanone]"
12,0.31 nM,"O=C(N1CC2(CC(Cc3n[nH]cc3C(F)(F)F)C2)C1)N1CC2(CC(n3cnc(C(F)(F)F)n3)C2)C1 [Example 129, [6-[[4-(trifluoromethyl)-1H-pyrazol-3-yl]methyl]-2-azaspiro[3.3]heptan-2-yl]-[6-[3-(trifluoromethyl)-1,2,4-triazol-1-yl]-2-azaspiro[3.3]heptan-2-yl]methanone]"
13,27.3 nM,"Cn1ncc(CN2CC3(C2)CN(C(=O)N2CC4(CC(n5cnc(C(F)(F)F)n5)C4)C2)C3)c1C(F)(F)F [Example 164, [6-[[1-methyl-5-(trifluoromethyl)pyrazol-4-yl]methyl]-2,6-diazaspiro[3.3]heptan-2-yl]-[6-[3-(trifluoromethyl)-1,2,4-triazol-1-yl]-2-azaspiro[3.3]heptan-2-yl]methanone]"
14,0.96 nM,"CC(C)(C)c1coc(CN2CC3(C2)CN(C(=O)N2CC4(CC(n5cnc(C6CC6)n5)C4)C2)C3)n1 [Example 98, [6-[(4-tert-butyloxazol-2-yl)methyl]-2,6-diazaspiro[3.3]heptan-2-yl]-[6-(3-cyclopropyl-1,2,4-triazol-1-yl)-2-azaspiro[3.3]heptan-2-yl]methanone]"
15,8.91 nM,"O=C(N1CC2(CC(Cc3cn(CC(F)(F)F)nn3)C2)C1)N1CC2(CC(n3cnc(C(F)(F)F)n3)C2)C1 [Example 336, [6-[[1-(2,2,2-trifluoroethyl)triazol-4-yl]methyl]-2-azaspiro[3.3]heptan-2-yl]-[6-[3-(trifluoromethyl)-1,2,4-triazol-1-yl]-2-azaspiro[3.3]heptan-2-yl]methanone]"
16,0.85 nM,"O=C(N1CC2(CC(Cc3nsc(C(F)(F)F)n3)C2)C1)N1CC2(CC(n3cnc(C(F)(F)F)n3)C2)C1 [Example 20, [6-[[5-(trifluoromethyl)-1,2,4-thiadiazol-3-yl]methyl]-2-azaspiro[3.3]heptan-2-yl]-[6-[3-(trifluoromethyl)-1,2,4-triazol-1-yl]-2-azaspiro[3.3]heptan-2-yl]methanone]"
17,76.5 nM,"O=C(N1CC2(CCN(Cc3ncc(C(F)F)s3)CC2)C1)N1CC2(CC(n3cnc(C4(O)CC4)n3)C2)C1 [Example 33, [7-[[5-(difluoromethyl)thiazol-2-yl]methyl]-2,7-diazaspiro[3.5]nonan-2-yl]-[6-[3-(1-hydroxycyclopropyl)-1,2,4-triazol-1-yl]-2-azaspiro[3.3]heptan-2-yl]methanone]"
18,2.43 nM,"Cn1nc(C(F)(F)F)cc1CC1CC2(C1)CN(C(=O)N1CC3(CC(n4cnc(C5(O)CC5)n4)C3)C1)C2 [Example 288, [6-[3-(1-hydroxycyclopropyl)-1,2,4-triazol-1-yl]-2-azaspiro[3.3]heptan-2-yl]-[6-[[2-methyl-5-(trifluoromethyl)pyrazol-3-yl]methyl]-2-azaspiro[3.3]heptan-2-yl]methanone]"
19,84.1 nM,O=C(N1CC2(CC(n3cnc(C4(O)CC4)n3)C2)C1)N1CC2(CN(Cc3ncc(C(F)F)s3)C2)C1 [Example 186]
20,81.2 nM,"O=C(N1CC2(CCN(Cc3nc(C(F)(F)F)cs3)CC2)C1)N1CC2(CC(n3cnc(C4(O)CC4)n3)C2)C1 [Example 175, [6-[3-(1-hydroxycyclopropyl)-1,2,4-triazol-1-yl]-2-azaspiro[3.3]heptan-2-yl]-[7-[[4-(trifluoromethyl)thiazol-2-yl]methyl]-2,7-diazaspiro[3.5]nonan-2-yl]methanone]"
21,20.2 nM,"O=C(N1CC2(CC(c3cc(C4CC4)n[nH]3)C2)C1)N1CC2(CN(Cc3ccnn3C(F)(F)F)C2)C1 [Example 224, [6-(3-cyclopropyl-1H-pyrazol-5-yl)-2-azaspiro[3.3]heptan-2-yl]-[6-[[2-(trifluoromethyl)pyrazol-3-yl]methyl]-2,6-diazaspiro[3.3]heptan-2-yl]methanone]"
22,69.4 nM,"O=C(N1CC2(CC(Cc3nc(CC(F)(F)F)n[nH]3)C2)C1)N1CC2(CC(n3cnc(C(F)F)n3)C2)C1 [Example 316, [6-[3-(difluoromethyl)-1,2,4-triazol-1-yl]-2-azaspiro[3.3]heptan-2-yl]-[6-[[3-(2,2,2-trifluoroethyl)-1H-1,2,4-triazol-5-yl]methyl]-2-azaspiro[3.3]heptan-2-yl]methanone]"
23,3.42 nM,"Cn1nc(C(F)(F)F)cc1CN1CCC2(CC1)CN(C(=O)N1CC3(CC(n4cnc(C5CC5)n4)C3)C1)C2 [Example 26, [6-(3-cyclopropyl-1,2,4-triazol-1-yl)-2-azaspiro[3.3]heptan-2-yl]-[7-[[2-methyl-5-(trifluoromethyl)pyrazol-3-yl]methyl]-2,7-diazaspiro[3.5]nonan-2-yl]methanone]"
